Results taken from patent US11541010B2, “Amphoteric liposomes comprising imino lipids” (BioNTech Delivery Technologies GmbH, priority 2009, dated 2023).
“Also recorded” adds a separate entry of the source.

Columns and labels:
Assay type in all cases: cell-based
HeLa cells [1] = assay: Criticality of the guanido head group, HeLa proliferation IC50 with and without sera (Example 6); conditions: mixtures comprising an excess of the anionic lipid CHEMS, 20% cholesterol
Protocol: (§1) HeLa cells were obtained from DSMZ (German Collection of Micro Organism and Cell Cultures) and maintained in DMFM (Gibco-Invitrogen) and supplemented with 10% FCS. The cells were plated at a density of 2.5×10^4 cells/ml and cultivated in 100 μl medium at 37° C. under 5% CO2. After 16 h, the liposomes containing siRNA were diluted and 10 μl were added to the cells to yield final concentrations between 0.4 to 100 nM Plk1 or scrambled siRNA; 10 μl dilution buffer were also added to untreated cells and into wells without cells. Cell culture dishes were incubated for 72 h at 37° C. under 5% CO2
(§2) Cell proliferation/viability was determined by using the CellTiter-Blue Cell Viability assay (Promega, US) according to the instructions of the supplier.
Series of liposomes having systematically varied ratios between the cationic and anionic lipid components were produced and loaded with siRNA as in Example 5. The cationic lipid components were PONA, PONamine and PONammonium, the anionic lipid was CHEMS and the cholesterol content was fixed to 20 mol %. […]
HeLa cells were grown and maintained as in Example 2 and sera of human or mice origin (SIGMA-Aldrich) was added directly to the cells for 120 min. Following that, the liposomes were added to the cells in concentrations between 50 pM and 50 nM, incubation was continued for 72 h and cell viability was determined as above. […]

HeLa cells [2] = assay: Serum resistant transfection, cationic lipids with phosphate lipid DOPA, HeLa IC50 (Example 15); conditions: liposomes of the cationic lipid in combination with phosphate lipid DOPA, PLK-1 siRNA
Protocol: as §1, §2
Series of liposomes having C/A ratios of either 0.75 or 1 were produced and loaded with siRNA as in Example 5. The cationic lipid components were CHOLGUA, CHIM, DC-CHOL, GUADACA, MPDACA, BADACA, PONA, DOTAP or DODAP. The anionic lipid was DOPA and the cholesterol content was 40 mol %, all lipid mixtures are identified in table 20. Liposomes were further supplied with 1.5 mol % DMPE-PEG2000 (Nippon Oils and Fats).
(§3) HeLa cells were grown and maintained as in Example 2 and mouse serum (SIGMA-Aldrich) was added directly to the cells for 120-min. Following that, the liposomes were added to the cells, incubation was continued for 72 h and cell viability was determined as above. The efficacy of transfection is expressed here as IC50 (in nM of siRNA) as in Example 5.

HeLa cells [3] = assay: Serum resistant transfection, DACA or cholesterol based cationic lipids with carboxyl lipids, HeLa (Example 14); conditions: for serum-resistant transfection of HeLa cells: liposomes of the cationic lipid with carboxyl lipid DOGS and cholesterol, PLK-1 siRNA, 10% mouse serum; for transfection of HeLa cells in the presence of mouse serum: liposomes of the cationic lipid with carboxyl lipids CHEMS, DMGS or DOGS, 20 or 40 mol % cholesterol
Protocol: All liposomes were loaded with PLK-1 siRNA, an oligonucleotide capable of inhibiting the production of the cell cycle kinase PLK-1 and successful transfection was measured by inhibition of cell viability of the test cells (see also Haupenthai et al., int. J. Cancer (2007), 121:206-210. Unspecific inhibition of the cell viability, that is, cytotoxic effects, were monitored by control preparations comprising a non-targeting siRNA of the same general composition and in the same amounts.
The transfection of cells was followed in regular cell culture medium or with the additional presence of 10% mouse serum, a potent inhibitor of cellular uptake for many amphoteric liposomes. The efficacy of transfection is expressed as IC50, the concentration needed to achieve a 50% inhibition of the cell viability.
The ratio between the IC50 in regular medium and the IC50 upon addition of mouse serum is used as a metric for the inhibition of the cellular uptake by mouse serum. This ratio is 5 or higher for liposomes without specific targeting properties. It is 5 or lower for the liposomes of this invention; that is liposomes comprising charged imino groups in combination with negatively charged lipids.
Series of liposomes having systematically varied ratios between the cationic and anionic lipid components were produced and loaded with siRNA as in Example 5. The cationic lipid components were CHOLGUA, CHIM, DC-CHOL, TC-CHOL, GUADACA, MPDACA, BADACA end PDAGA. The anionic lipids were CHEMS, DMGS or DOGS and the cholesterol content was either 20 or 40 mol %, all lipid mixtures are identified in the data tables. Liposomes having a ratio of the cationic: anionic lipid of 1 or greater (C/A>=1) were further supplied with 1.5 mol % DMPE-PEG2000 (Nippon Oils and Fats).
as §3, with “120 min.” for “120-min.”, “The highest concentrations of liposomes were 40 nM and 36 nM for experiments in the absence or presence of mouse serum, respectively. The” for “The”, “nM” for “nM of”

| SMILES | transfection activity in the presence of sera (HeLa cells [1]) | transfection of HeLa cells in the presence of serum (HeLa cells [2]) | serum-resistant transfection of HeLa cells (HeLa cells [3]) | transfection of HeLa cells in the presence of mouse serum (HeLa cells [3]) |
| --- | --- | --- | --- | --- |
| CCCCCCCC/C=C/CCCCCCCC(=O)NC(CC[N+](C)(C)C)C(=O)NCCCCCCCCCCCCCCCC (centres unmarked) [PONammonium] | remained inactive in the presence of sera | not PONammonium resulted in serum-resistant transfection |  |  |
| CC(C)CCC[C@@H](C)[C@H]1CC[C@H]2[C@@H]3CCC4CC(OC(=O)NCCCn5ccnc5)CC[C@]4(C)[C@H]3CC[C@]12C (some centres unmarked) [CHIM, reference compound] |  | did not result in any transfection in the presence of serum |  |  |
| CC(C)CCC[C@@H](C)[C@H]1CC[C@H]2[C@@H]3CC=C4C[C@@H](OC(=O)NCCN(C)C)CC[C@]4(C)[C@H]3CC[C@]12C [DC-CHOL, reference compound] |  | did not result in any transfection in the presence of serum | still active in the absence, but no longer in the presence of mouse serum |  |
| CC(C)CCC[C@@H](C)[C@H]1CC[C@H]2[C@@H]3CC=C4C[C@@H](OC(=O)NCCNC(=N)N)CC[C@]4(C)[C@H]3CC[C@]12C [CHOLGUA] |  | remain potent transfectants even in the presence of mouse serum | best serum-resistant transfection | remain potent transfectants even in the presence of mouse serum |
| CCCCCCCC/C=C/CCCCCCCC(=O)NC(CCNC(=N)N)C(=O)NCCCCCCCCCCCCCCCC (centres unmarked) [PONA, palmitoyl-oleoyl-nor-arginine] |  | resulted in serum-resistant transfection; also recorded: remain potent transfectants even in the presence of mouse serum |  | remain potent transfectants even in the presence of mouse serum |
| CCCCCCCC/C=C/CCCCCCCC(=O)NC(CCN)C(=O)NCCCCCCCCCCCCCCCC (centres unmarked) [PONamine] |  | resulted in serum-resistant transfection |  |  |
